Reference: EPA's ToxRefDB 2

What was measured:
rat [1] = conditions: Multigenerational reproductive toxicity study, sprague dawley, Oral, Gavage/Intubation, dose end: 2 generation
rat [2] = conditions: Combined chronic toxicity/carcinogenicity, Crl: CD (SD) IGS BR, Oral, Feed, dose end: 104 week, group: systemic
rat [3] = conditions: Subchronic oral toxicity in rodents, Sprague Dawley, Feed, dose end: 14 week, group: systemic
rat [4] = conditions: Developmental neurotoxicity study, sprague dawley, Oral, Gavage/Intubation, dose end: 72 PND, group: cannot be grouped
rat [5] = conditions: Combined chronic toxicity/carcinogenicity, sprague dawley, Oral, Feed, dose end: 104 week, group: systemic
rabbit [6] = conditions: Prenatal developmental toxicity study, other, Oral, Gavage/Intubation, dose end: 18 GD
dog [7] = conditions: Subchronic oral toxicity in nonrodent, beagle, Feed, dose end: 13 week, group: systemic
mouse [8] = conditions: Subchronic oral toxicity in rodents, cd1, Feed, dose end: 13 week, group: systemic
rat [9] = conditions: Multigenerational reproductive toxicity study, sprague dawley, Oral, Feed, dose end: 2 generation
rat [10] = conditions: Subchronic oral toxicity in rodents, sprague dawley, Feed, dose end: 13 week, group: systemic, systemic / clinical chemistry / globulins / globulins + systemic / clinical chemistry / protein / protein + systemic / organ weight / liver…
mouse [11] = conditions: Subchronic oral toxicity in rodents, cd1, Feed, dose end: 90 day, group: systemic
dog [12] = conditions: Chronic toxicity; beagle; Oral; Capsule; dose end: 12 month; group: systemic; systemic / clinical chemistry / alkaline phosphatase (alp/alk) / alkaline phosphatase (alp/alk) + systemic / organ weight / liver / absolute…
mouse [13] = conditions: Carcinogenicity, cd1, Oral, Feed, dose end: 78 week, group: systemic
rat [14] = conditions: Subchronic oral toxicity in rodents, sprague dawley, Feed, dose end: 90 day, group: systemic, systemic / in life observation / body weight / body weight gain + systemic / in life observation / food consumption / food consumption + …
rat [15] = conditions: Multigenerational reproductive toxicity study, sprague dawley, Oral, Feed, dose end: 2 generation; remark: listed apart in the source
rat [16] = conditions: Combined chronic toxicity/carcinogenicity, sprague dawley, Oral, Feed, dose end: 104 week, group: systemic; remark: listed apart in the source
rabbit [17] = conditions: Prenatal developmental toxicity study, other, Oral, Gavage/Intubation, dose end: 27 GD
[18] = group: offspring, developmental / developmental landmark / eye opening / eye opening + developmental / developmental landmark / pinna unfolding / pinna …
[19] = group: parental, systemic / in life observation / body weight / body weight + systemic / in life observation / body weight / body weight gain + systemic / in…
[20] = group: reproductive, reproductive / offspring survival early / litter viability other / total litter loss
[21] = group: reproductive, reproductive / reproductive performance / gestational length / gestational length + reproductive / reproductive performance / implantations…
[22] = systemic / in life observation / body weight / body weight + systemic / organ weight / liver / relative to body weight + systemic / …
[23] = systemic / clinical chemistry / aspartate aminotransferase (ast/sgot) / aspartate aminotransferase (ast/sgot) + systemic / clinical …
[24] = systemic / in life observation / body weight / body weight + systemic / in life observation / body weight / body weight gain + systemic / in…
[25] = systemic / in life observation / clinical signs / tooth-malocclusion
[26] = group: developmental, developmental / developmental malformation / bone / full supernumerary
[27] = group: maternal, systemic / in life observation / body weight / body weight gain + systemic / in life observation / food consumption / food consumption + …
[28] = systemic / clinical chemistry / triglycerides / triglycerides + systemic / in life observation / clinical signs / mucoid stools + systemic…
[29] = systemic / in life observation / clinical signs / vomiting
[30] = systemic / clinical chemistry / alkaline phosphatase (alp/alk) / alkaline phosphatase (alp/alk) + systemic / organ weight / liver / absolute…
[31] = group: offspring, developmental / offspring survival late / viability index / viability index + systemic / in life observation / body weight / offspring (pup…
[32] = group: parental, systemic / organ weight / adrenal gland / relative to body weight + systemic / organ weight / adrenal gland / relative to brain weight
[33] = group: parental, systemic / organ weight / adrenal gland / relative to body weight + systemic / organ weight / adrenal gland / relative to brain weight + …
[34] = systemic / clinical chemistry / triglycerides / triglycerides
[35] = systemic / in life observation / body weight / body weight + systemic / in life observation / body weight / body weight gain + systemic / …
[36] = group: offspring, systemic / in life observation / body weight / offspring (pup) weight + systemic / in life observation / body weight / offspring (pup) …
[37] = systemic / pathology microscopic / mammary gland / adenoacanthoma
[38] = group: developmental, systemic / in life observation / body weight / fetal weight
[39] = group: maternal, reproductive / reproductive performance / aborted / aborted + reproductive / reproductive performance / premature delivery / premature …

Compound `O=S(=O)([O-])C(F)(F)C(F)(F)C(F)(F)C(F)(F)C(F)(F)C(F)(F)C(F)(F)C(F)(F)F.[K+]` [PFOS-K] has an LEL (rat [1]; [18]) of 1.6 mg/kg/day, an LOAEL (rat [1]; [18]) of over 3.2 mg/kg/day and an NEL (rat [1]; [18]) of 0.4 mg/kg/day. It also gave an NOAEL (rat [1]; [18]) of at least 3.2 mg/kg/day, an LOAEL (rat [1]; [19]) of over 3.2 mg/kg/day and an NEL (rat [1]; [19]) of 0.1 mg/kg/day. The NOAEL (rat [1]; [19]) was at least 3.2 mg/kg/day, the LEL (rat [1]; group: parental, systemic / in life observation / body weight / body weight gain) was 0.4 mg/kg/day and the LEL (rat [1]; [20]) was 1.6 mg/kg/day. It also gave an NEL (rat [1]; [20]) of 0.4 mg/kg/day, an LOAEL (rat [1]; [21]) of over 3.2 mg/kg/day and an NOAEL (rat [1]; [21]) of at least 3.2 mg/kg/day. For the same compound, the LOAEL (rat [2]; [22]) was over 1 mg/kg/day, the NOAEL (rat [2]; [22]) was at least 1 mg/kg/day and the NEL (rat [2]; systemic / pathology microscopic / liver / adenoma + systemic / in life observation / body weight / body weight + systemic / organ weight / …) was 0.025 mg/kg/day. For the same compound, the LEL (rat [2]; systemic / pathology microscopic / liver / degeneration + systemic / pathology microscopic / liver / eosinophilic focus) was 0.1 mg/kg/day, the NEL (rat [3]; systemic / clinical chemistry / alanine aminotransferase (alt/sgpt) / alanine aminotransferase (alt/sgpt) + systemic / clinical chemistry / …) was 0.1 mg/kg/day and the LOAEL (rat [3]; [23]) was over 1 mg/kg/day. It also gave an NOAEL (rat [3]; [23]) of at least 1 mg/kg/day, an LEL (rat [3]; systemic / pathology microscopic / liver / hypertrophy + systemic / pathology microscopic / liver / vacuolization) of 0.25 mg/kg/day and an LOAEL (rat [4]; systemic / in life observation / body weight / body weight) of 1 mg/kg/day. For the same compound, the LEL (rat [4]; [24]) was 1 mg/kg/day, the NEL (rat [4]; [24]) was 0.3 mg/kg/day and the NOAEL (rat [4]; [24]) was 0.3 mg/kg/day.
With `CCOc1cc(C(C)(C)C)ccc1C1COC(c2c(F)cccc2F)=N1` (configuration not stated) [Etoxazole] the LOAEL (rat [5]; systemic / in life observation / clinical signs / tooth nos) was 187 mg/kg/day, the NOAEL (rat [5]; systemic / in life observation / clinical signs / tooth nos + systemic / hematology / blood clotting / blood clotting - activated partial …) was 1.83 mg/kg/day and the LEL (rat [5]; [25]) was 2.07 mg/kg/day. The NEL (rat [5]; [25]) was under 2.07 mg/kg/day, the LEL (rabbit [6]; [26]) was 1000 mg/kg/day and the LOAEL (rabbit [6]; [26]) was 1000 mg/kg/day. For the same compound, the NEL (rabbit [6]; [26]) was 200 mg/kg/day, the NOAEL (rabbit [6]; [26]) was 200 mg/kg/day and the LEL (rabbit [6]; [27]) was 1000 mg/kg/day. The LOAEL (rabbit [6]; [27]) was 1000 mg/kg/day, the NEL (rabbit [6]; [27]) was 200 mg/kg/day and the NOAEL (rabbit [6]; [27]) was 200 mg/kg/day. For the same compound, the LOAEL (dog [7]; [28]) was 53.7 mg/kg/day, the NOAEL (dog [7]; [28]) was 5.33 mg/kg/day and the LEL (dog [7]; [29]) was 5.33 mg/kg/day. For the same compound, the NEL (dog [7]; [29]) was under 5.33 mg/kg/day, the LOAEL (mouse [8]; [30]) was 878 mg/kg/day and the NEL (mouse [8]; [30]) was 55.1 mg/kg/day. It also gave an NOAEL (mouse [8]; [30]) of 214 mg/kg/day, an LEL (mouse [8]; systemic / organ weight / liver / absolute + systemic / organ weight / liver / relative to body weight + systemic / pathology microscopic / …) of 214 mg/kg/day and an LOAEL (rat [9]; group: offspring, developmental / offspring survival late / viability index / viability index) of 157 mg/kg/day. It also gave an LEL (rat [9]; [31]) of 157 mg/kg/day, an NEL (rat [9]; [31]) of 31.6 mg/kg/day and an NOAEL (rat [9]; [31]) of 31.6 mg/kg/day. The NEL (rat [9]; [32]) was 33.4 mg/kg/day, the NOAEL (rat [9]; [32]) was 33.4 mg/kg/day and the LEL (rat [9]; [33]) was 139 mg/kg/day. It also gave an LOAEL (rat [9]; [33]) of 139 mg/kg/day, an LEL (rat [10]) of 300 mg/kg/day and an LOAEL (rat [10]) of 300 mg/kg/day. The NEL (rat [10]) was under 300 mg/kg/day and the NOAEL (rat [10]) was under 300 mg/kg/day.
For `FC(F)(F)c1ccc(OCCCOc2c(Cl)cc(OCC=C(Cl)Cl)cc2Cl)nc1` [Pyridalyl], the LEL (mouse [11]; [34]) was 9.5 mg/kg/day, the NEL (mouse [11]; [34]) was under 9.5 mg/kg/day and the LOAEL (mouse [11]; [35]) was 378 mg/kg/day. For the same compound, the NOAEL (mouse [11]; [35]) was 81.7 mg/kg/day, the LEL (dog [12]) was 80 mg/kg/day and the LOAEL (dog [12]) was over 80 mg/kg/day. For the same compound, the NEL (dog [12]) was 20 mg/kg/day, the NOAEL (dog [12]) was at least 80 mg/kg/day and the LEL (mouse [13]; systemic / hematology / mean corpuscular (cell) volume (mcv) / mean corpuscular (cell) volume (mcv)) was 5.04 mg/kg/day. It also gave an NEL (mouse [13]; systemic / hematology / mean corpuscular (cell) volume (mcv) / mean corpuscular (cell) volume (mcv) + systemic / hematology / lymphocyte / …) of 1.57 mg/kg/day, an LOAEL (mouse [13]; [24]) of 99 mg/kg/day and an NOAEL (mouse [13]; [24]) of 4.78 mg/kg/day. It also gave an LEL (rat [14]) of 56 mg/kg/day, an LOAEL (rat [14]) of 56 mg/kg/day and an NEL (rat [14]) of 5.56 mg/kg/day. It also gave an NOAEL (rat [14]) of 5.56 mg/kg/day, an LOAEL (rat [15]; [36]) of 83.7 mg/kg/day and an NEL (rat [15]; [36]) of 3.4 mg/kg/day. It also gave an NOAEL (rat [15]; [36]) of 17 mg/kg/day, an LEL (rat [15]; group: offspring, systemic / organ weight / thymus / nos) of 17 mg/kg/day and an LOAEL (rat [15]; [19]) of 68.7 mg/kg/day. It also gave an NOAEL (rat [15]; [19]) of 13.8 mg/kg/day, an LEL (rat [15]; group: parental, systemic / organ weight / testes / absolute) of 17 mg/kg/day and an NEL (rat [15]; group: parental, systemic / organ weight / testes / absolute + systemic / in life observation / body weight / body weight + systemic / in life observation / …) of 3.4 mg/kg/day. For the same compound, the LOAEL (rat [16]; [24]) was 17.1 mg/kg/day, the NOAEL (rat [16]; [35]) was 3.4 mg/kg/day and the LEL (rat [16]; [37]) was 1.23 mg/kg/day. The NEL (rat [16]; [37]) was under 1.23 mg/kg/day, the LEL (rabbit [17]; [38]) was 150 mg/kg/day and the LOAEL (rabbit [17]; [38]) was 150 mg/kg/day. The NEL (rabbit [17]; [38]) was 50 mg/kg/day, the NOAEL (rabbit [17]; [38]) was 50 mg/kg/day and the LEL (rabbit [17]; [39]) was 150 mg/kg/day. The LOAEL (rabbit [17]; [39]) was 150 mg/kg/day, the NEL (rabbit [17]; [39]) was 50 mg/kg/day and the NOAEL (rabbit [17]; [39]) was 50 mg/kg/day.
